Source: ChEMBL document CHEMBL1201862, “PubChem BioAssay data set” (2004)
The source made the active and inactive calls.

Columns and labels:
[1] = biological target: Envelope glycoprotein gp160 (Human immunodeficiency virus 1, UniProt Q6QLK5); experiment: cell-free HIV fusion peptide-binding blockers – biochemical, uHTS, fluorescence dequenching, […] (AID 1986)
[2] = CCR5-tropic HIV-1 fusion blockers – cell-based, CCR5-tropic Env, dose response (AID 2279); type: functional
[3] = biological target: T1, Probable nicotinate-nucleotide adenylyltransferase (Staphylococcus aureus (strain N315), UniProt P65502); type: functional, Staphylococcus aureus subsp. aureus N315;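 as to IC50 Mean: confirmatory dose-response retesting of NadD inhibitor hits first found in an ultra-high-throughput screen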
[4] = biological target: T1, Probable nicotinate-nucleotide adenylyltransferase; type: functional, Staphylococcus aureus subsp. aureus N315; conditions: read-out: IC50_Mean
[5] = biological target: ELAV-like protein 1 (Homo sapiens, UniProt Q15717); experiment: Identify HuR specific inhibitors.; type: functional
[6] = tested on: Streptococcus sp. 'group A'; experiment: Streptococcus pyogenes SK(-)GAS viability under kanamycin – luminescence, BacTiterGlo, confirmation, counter-screen for streptokinase expression inhibitor project, dose response (AID 1900); type: functional, organism-based
[7] = biological target: Luciferin 4-monooxygenase (Photinus pyralis, UniProt P08659); experiment: Counter Screen for Luciferase-based Assay Positives. [Related pubchem assays: 620, 618, 411 ]
[8] = biological target: Glyceraldehyde-3-phosphate dehydrogenase (Homo sapiens, UniProt P04406)
[9] = biological target: T2, Streptokinase A (Streptococcus pyogenes serotype M1, UniProt P10520); experiment: viability-normalized secreted streptokinase activity reduction – plasminogen activation absorbance, OD405, dose response (AID 1914); type: functional, Streptococcus pyogenes M1 GAS;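 also: secreted streptokinase activity via plasminogen activation per viability signal from cell pellet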
T2 sequence (P10520 whole entry): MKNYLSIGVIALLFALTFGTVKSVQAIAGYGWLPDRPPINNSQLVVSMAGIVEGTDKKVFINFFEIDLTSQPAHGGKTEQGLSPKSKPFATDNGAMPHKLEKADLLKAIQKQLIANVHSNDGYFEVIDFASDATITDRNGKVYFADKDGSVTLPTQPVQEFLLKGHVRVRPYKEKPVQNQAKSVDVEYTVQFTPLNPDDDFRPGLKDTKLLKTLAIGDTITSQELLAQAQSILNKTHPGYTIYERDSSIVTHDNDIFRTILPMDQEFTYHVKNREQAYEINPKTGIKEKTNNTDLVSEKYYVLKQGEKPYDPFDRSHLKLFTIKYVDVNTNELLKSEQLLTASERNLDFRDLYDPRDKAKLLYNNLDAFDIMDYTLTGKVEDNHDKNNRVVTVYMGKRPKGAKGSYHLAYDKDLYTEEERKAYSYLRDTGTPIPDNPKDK

[10] = microbe, parasite or virus in culture; type: functional; conditions: Mycobacterium tuberculosis
[11] = tested on: HT-1080; experiment: HT1080 cell viability loss – fluorescence readout (AID 620); type: functional, cell-based; conditions: Homo sapiens
[12] = tested on: Streptococcus; experiment: GAS UMAA2166 growth inhibition – luminescence, BacTiterGlo, counter-screen for streptokinase expression inhibitor project, dose response (AID 1915); type: functional, organism-based;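 also: potency for reduction of bacterial viability or growth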
[13] = biological target: G-protein coupled receptor 55 (Homo sapiens, UniProt Q9Y2T6); experiment: selective activators of receptor GPR55 – imaging, U2OS cells, beta-arrestin-GFP redistribution, primary screen (AID 1961); type: functional
[14] = tested on: INS1; experiment: INS-1E survival protection against cytokine death – cell-based, luminescence, retest, dose response (AID 449756); type: functional; conditions: Rattus norvegicus;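 also: cell death triggered by IL-1 beta plus TNF-alpha plus IFN-gamma mixture; protective hits raise ATP signal compared with cytokine alone wells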
[15] = IC50 of Artemis nuclease activity blockers – biochemical, fluorescence intensity, dose response (AID 720701); type: functional;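 also: Artemis endonuclease enzyme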
[16] = biological target: Potassium voltage-gated channel subfamily KQT member 2 (Rattus norvegicus, UniProt O88943); experiment: potentiation of rat KCNQ2 current – cell-based, retigabine-insensitive compounds, dose response (AID 2654); type: functional
[17] = cells; type: functional, cell-based
[18] = biological target: T3, Trace amine-associated receptor 1 (Homo sapiens, UniProt Q96RJ0); experiment: Fluorescence-based cell-based high throughput dose response assay to identify agonists of the human trace amine associated receptor 1 (TAAR1).; type: functional
T3 sequence (Q96RJ0 whole entry): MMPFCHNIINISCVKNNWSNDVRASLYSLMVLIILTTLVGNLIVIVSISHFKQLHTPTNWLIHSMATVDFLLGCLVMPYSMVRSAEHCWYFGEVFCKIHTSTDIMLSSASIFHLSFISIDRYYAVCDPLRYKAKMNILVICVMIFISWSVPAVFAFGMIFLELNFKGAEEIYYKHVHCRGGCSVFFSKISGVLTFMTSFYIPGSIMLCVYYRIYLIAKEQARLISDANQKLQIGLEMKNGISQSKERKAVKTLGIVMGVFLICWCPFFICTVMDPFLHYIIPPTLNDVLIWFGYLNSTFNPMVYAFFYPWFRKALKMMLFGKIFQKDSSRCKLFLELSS

[19] = biological target: T3, Trace amine-associated receptor 1; experiment: Counterscreen for agonists of the human trace amine associated receptor 1 (hTAAR1): Fluorescence-based cell-based high throughput dose response assay to identify hTAAR1 agonist that also desensitize TAAR1 receptor response.; type: functional
[20] = cells; type: functional, cell-based; remark: listed apart in the source
[21] = biological target: Trypsin (Sus scrofa, UniProt P00761); experiment: trypsin protease activity blockade – biochemical, quenched peptide fluorescence, cherry-pick, selectivity assay for Rce1 protease inhibitor project, dose response (AID 488789)
[22] = biological target: CAAX prenyl protease 2 (Saccharomyces cerevisiae S288c, UniProt Q03530); type: biochemical
[23] = biological target: T4, CAAX prenyl protease 2 (Homo sapiens, UniProt Q9Y256); experiment: inhibition of Ras-converting CAAX protease Rce1 – biochemical, yeast membranes, quenched-peptide fluorescence, cherry-pick, dose response (AID 588849)
T4 sequence (Q9Y256 whole entry): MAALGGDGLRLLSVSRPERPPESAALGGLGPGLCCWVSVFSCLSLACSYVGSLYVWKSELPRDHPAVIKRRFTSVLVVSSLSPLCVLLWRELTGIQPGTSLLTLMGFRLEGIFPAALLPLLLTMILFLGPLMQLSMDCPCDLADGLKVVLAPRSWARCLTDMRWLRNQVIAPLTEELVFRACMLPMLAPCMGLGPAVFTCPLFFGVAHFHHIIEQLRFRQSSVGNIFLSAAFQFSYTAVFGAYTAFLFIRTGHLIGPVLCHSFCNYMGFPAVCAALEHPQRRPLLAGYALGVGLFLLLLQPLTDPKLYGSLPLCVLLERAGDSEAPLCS

[24] = viability loss in HeLa cells – cytotoxicity control for MgcRacGAP inhibitor project, dose response (AID 624300); type: functional
[25] = biological target: T5, Rac GTPase-activating protein 1 (Homo sapiens, UniProt Q9H0H5); experiment: blockers of MgcRacGAP-driven Rac1 GTP hydrolysis – biochemical, ADP Hunter fluorescence, primary and confirmatory, confirmation (AID 624330); type: functional
T5 sequence (Q9H0H5 whole entry): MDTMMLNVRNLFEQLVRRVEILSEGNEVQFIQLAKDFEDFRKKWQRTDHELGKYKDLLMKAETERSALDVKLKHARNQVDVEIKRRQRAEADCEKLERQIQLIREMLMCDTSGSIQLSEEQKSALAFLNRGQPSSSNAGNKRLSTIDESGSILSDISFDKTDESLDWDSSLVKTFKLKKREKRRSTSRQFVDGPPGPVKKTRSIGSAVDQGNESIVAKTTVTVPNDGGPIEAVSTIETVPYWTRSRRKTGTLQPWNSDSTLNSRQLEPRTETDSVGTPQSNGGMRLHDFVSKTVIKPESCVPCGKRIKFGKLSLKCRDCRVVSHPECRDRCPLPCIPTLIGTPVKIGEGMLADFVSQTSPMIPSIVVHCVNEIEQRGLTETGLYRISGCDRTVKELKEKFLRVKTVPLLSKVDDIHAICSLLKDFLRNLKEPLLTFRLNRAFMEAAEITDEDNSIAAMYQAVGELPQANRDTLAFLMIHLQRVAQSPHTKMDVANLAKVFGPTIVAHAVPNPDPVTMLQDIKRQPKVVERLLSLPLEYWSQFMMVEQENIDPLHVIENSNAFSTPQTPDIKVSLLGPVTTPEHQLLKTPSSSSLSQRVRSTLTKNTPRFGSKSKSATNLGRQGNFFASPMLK

[26] = biological target: E3 ubiquitin-protein ligase Mdm2/Protein Mdm4 (Homo sapiens, UniProt O15151+Q00987); experiment: disruption of Mdm2/MdmX protein binding – luminescence detection, dose response (AID 504593); type: functional
[27] = biological target: T6, SUMO-activating enzyme (Homo sapiens, UniProt Q9UBT2); experiment: blockers of UBC9-mediated SUMO conjugation – biochemical, AlphaScreen, SUMOylation inhibitor project, confirmation (AID 2018); type: functional
[28] = biological target: T6, SUMO-activating enzyme; experiment: blockers of SAE1/SAE2–UBC9 SUMO transfer – biochemical, HTRF, uHTS, primary screen (AID 2006); type: protein-complex assay
[29] = biological target: T7, Heat shock factor protein 1 (Mus musculus, UniProt P38532); experiment: enhancement of HSF1-driven luciferase signal – cell-based, NIH3T3, luminescence, dose retest, confirmation (AID 435004); type: functional;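 also: stress induced by proteasome inhibitor MG132 added 30 min after compound; luciferase reporter driven by HSF1 response element in NIH3T3 cells; actives raise luminescence as potentiators of the MG132 stress response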
T7 sequence (P38532 whole entry): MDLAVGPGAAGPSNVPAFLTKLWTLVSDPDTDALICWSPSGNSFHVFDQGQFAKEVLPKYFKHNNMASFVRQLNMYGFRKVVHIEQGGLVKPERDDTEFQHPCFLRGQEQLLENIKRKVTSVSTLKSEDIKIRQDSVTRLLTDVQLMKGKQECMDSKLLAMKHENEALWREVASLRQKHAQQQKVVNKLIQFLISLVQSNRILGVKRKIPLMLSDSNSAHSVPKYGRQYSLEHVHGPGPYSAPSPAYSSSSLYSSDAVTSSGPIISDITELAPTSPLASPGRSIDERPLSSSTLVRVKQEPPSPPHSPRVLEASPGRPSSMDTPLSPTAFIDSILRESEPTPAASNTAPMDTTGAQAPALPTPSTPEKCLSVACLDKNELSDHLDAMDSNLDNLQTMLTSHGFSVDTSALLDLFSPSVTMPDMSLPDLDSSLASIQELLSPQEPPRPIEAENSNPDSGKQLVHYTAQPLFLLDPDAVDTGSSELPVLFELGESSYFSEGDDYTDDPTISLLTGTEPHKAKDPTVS

[30] = biological target: T8, Tyrosine-protein phosphatase non-receptor type 7 (Homo sapiens, UniProt P35236); experiment: redox-active compounds inhibiting HePTP phosphatase – biochemical, fluorescence, mechanism study (AID 2068); type: functional
T8 sequence (P35236 whole entry): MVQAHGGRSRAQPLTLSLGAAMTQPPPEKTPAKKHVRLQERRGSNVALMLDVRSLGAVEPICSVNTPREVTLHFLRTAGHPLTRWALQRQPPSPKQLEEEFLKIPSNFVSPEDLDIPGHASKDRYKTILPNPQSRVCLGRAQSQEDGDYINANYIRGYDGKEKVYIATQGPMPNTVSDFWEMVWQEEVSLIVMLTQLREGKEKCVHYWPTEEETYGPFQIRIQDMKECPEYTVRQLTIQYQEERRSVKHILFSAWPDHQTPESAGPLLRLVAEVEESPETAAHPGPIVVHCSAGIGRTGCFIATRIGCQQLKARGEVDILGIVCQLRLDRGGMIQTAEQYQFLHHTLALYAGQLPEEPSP

[31] = biological target: Mu-type opioid receptor (Homo sapiens, UniProt P35372); experiment: SAR Analysis of Antagonists of the MOR Receptor using an Image-Based Assay - Set 3. [Related pubchem assays (depositor defined):AID1777, AID1785, AID1786, AID1966, AID2133, AID2136, AID2284, AID2285, AID2420]; type: functional
[32] = biological target: T9, Kappa-type opioid receptor (Homo sapiens, UniProt P41145); experiment: SAR analysis of small molecule antagonists of the kappa opioid receptor via a luminescent beta-arrestin assay - Set 4. [Related pubchem assays (depositor defined):AID1777, AID1778, AID1785, AID1786, AID1966, AID2133, AID2136, AID2285]; type: functional
[33] = biological target: Delta-type opioid receptor (Homo sapiens, UniProt P41143); experiment: SAR Analysis of Antagonists of the DOR Receptor using an Image-Based Assay - Set 3. [Related pubchem assays (depositor defined):AID1777, AID1785]; type: functional;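 also: U2OS cells expressing DOR1 and beta-arrestin GFP stimulated with 100 nM SNC80; imaging of GFP-tagged beta-arrestin moving into spots after receptor activation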
[34] = biological target: T9, Kappa-type opioid receptor; experiment: SAR analysis of Antagonists of the Kappa Opioid Receptor (KOR) using an Image-Based Assay - Set 4. [Related pubchem assays (depositor defined):AID1777, AID1785]; type: functional

T6 sequence (Q9UBE0 whole entry): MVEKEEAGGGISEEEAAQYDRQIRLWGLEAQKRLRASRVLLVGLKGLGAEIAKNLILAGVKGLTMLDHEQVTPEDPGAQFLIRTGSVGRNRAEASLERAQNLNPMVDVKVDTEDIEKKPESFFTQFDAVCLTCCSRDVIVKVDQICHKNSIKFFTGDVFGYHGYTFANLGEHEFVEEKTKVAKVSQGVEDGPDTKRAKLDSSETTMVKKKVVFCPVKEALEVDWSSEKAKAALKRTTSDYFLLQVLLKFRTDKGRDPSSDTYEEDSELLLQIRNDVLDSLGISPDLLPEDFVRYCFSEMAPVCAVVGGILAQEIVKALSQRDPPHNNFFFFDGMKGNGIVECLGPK
T6 sequence (Q9UBT2 whole entry): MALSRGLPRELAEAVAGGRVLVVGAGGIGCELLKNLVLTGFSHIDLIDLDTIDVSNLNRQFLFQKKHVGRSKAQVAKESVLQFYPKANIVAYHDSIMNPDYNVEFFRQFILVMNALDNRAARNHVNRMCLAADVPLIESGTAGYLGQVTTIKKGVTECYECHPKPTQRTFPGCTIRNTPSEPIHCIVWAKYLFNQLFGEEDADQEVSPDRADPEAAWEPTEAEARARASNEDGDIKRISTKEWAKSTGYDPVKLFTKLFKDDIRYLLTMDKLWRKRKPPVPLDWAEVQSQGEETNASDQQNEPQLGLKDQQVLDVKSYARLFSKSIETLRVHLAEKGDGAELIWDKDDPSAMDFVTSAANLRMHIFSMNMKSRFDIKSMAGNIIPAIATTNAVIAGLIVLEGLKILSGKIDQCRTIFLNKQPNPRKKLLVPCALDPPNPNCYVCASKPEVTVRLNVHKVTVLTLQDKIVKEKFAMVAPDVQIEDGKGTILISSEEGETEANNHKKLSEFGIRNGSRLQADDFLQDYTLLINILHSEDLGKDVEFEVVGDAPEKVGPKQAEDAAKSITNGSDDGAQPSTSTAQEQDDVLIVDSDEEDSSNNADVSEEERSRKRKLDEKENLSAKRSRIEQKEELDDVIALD
T1 sequence (P65502 whole entry): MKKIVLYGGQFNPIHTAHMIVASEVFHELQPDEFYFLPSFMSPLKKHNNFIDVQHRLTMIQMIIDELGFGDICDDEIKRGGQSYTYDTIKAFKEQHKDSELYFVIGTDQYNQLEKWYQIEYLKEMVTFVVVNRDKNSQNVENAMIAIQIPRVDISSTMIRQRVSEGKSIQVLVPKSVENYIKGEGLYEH
T9 sequence (P41145 whole entry): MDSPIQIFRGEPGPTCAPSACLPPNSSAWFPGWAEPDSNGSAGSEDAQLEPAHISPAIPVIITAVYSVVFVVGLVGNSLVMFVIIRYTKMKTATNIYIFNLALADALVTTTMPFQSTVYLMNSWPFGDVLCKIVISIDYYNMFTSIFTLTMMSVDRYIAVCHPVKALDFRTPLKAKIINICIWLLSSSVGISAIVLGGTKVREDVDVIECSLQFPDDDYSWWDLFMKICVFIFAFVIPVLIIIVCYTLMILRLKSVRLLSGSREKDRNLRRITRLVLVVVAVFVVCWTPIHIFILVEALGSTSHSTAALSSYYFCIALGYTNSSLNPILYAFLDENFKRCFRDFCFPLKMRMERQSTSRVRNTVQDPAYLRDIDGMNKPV
Sequence of Glyceraldehyde-3-phosphate dehydrogenase (P04406 whole entry): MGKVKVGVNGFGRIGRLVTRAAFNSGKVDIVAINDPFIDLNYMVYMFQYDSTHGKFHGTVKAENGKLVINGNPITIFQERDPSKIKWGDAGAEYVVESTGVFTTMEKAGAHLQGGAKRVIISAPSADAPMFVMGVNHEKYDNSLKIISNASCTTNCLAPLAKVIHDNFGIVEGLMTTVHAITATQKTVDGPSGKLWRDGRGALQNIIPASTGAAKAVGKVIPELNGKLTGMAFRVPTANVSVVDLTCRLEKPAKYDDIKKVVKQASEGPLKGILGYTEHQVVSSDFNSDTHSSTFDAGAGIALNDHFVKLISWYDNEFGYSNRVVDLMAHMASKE
Sequence of CAAX prenyl protease 2 (Saccharomyces cerevisiae S288c, UniProt Q03530) (Q03530 whole entry): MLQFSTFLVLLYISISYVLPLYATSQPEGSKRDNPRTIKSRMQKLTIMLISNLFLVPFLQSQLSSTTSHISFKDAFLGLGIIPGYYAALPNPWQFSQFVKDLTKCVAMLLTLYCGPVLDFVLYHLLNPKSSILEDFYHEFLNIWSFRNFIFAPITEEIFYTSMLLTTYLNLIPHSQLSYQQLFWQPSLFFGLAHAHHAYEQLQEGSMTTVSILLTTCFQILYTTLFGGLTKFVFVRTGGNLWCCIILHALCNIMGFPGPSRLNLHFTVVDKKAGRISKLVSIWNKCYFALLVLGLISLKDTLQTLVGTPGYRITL
Sequence of Mu-type opioid receptor (P35372 whole entry): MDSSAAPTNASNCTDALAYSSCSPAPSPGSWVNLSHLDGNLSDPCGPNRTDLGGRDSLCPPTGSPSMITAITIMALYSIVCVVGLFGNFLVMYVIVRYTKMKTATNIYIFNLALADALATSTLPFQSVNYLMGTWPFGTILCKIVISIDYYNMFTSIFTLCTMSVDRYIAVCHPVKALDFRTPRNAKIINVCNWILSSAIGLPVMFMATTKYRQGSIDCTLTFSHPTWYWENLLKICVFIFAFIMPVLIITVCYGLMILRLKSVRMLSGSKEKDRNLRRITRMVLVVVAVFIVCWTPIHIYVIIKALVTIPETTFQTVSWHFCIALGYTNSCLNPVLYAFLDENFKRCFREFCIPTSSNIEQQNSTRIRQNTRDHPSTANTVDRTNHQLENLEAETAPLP
Sequence of E3 ubiquitin-protein ligase Mdm2/Protein Mdm4 (Q00987 whole entry): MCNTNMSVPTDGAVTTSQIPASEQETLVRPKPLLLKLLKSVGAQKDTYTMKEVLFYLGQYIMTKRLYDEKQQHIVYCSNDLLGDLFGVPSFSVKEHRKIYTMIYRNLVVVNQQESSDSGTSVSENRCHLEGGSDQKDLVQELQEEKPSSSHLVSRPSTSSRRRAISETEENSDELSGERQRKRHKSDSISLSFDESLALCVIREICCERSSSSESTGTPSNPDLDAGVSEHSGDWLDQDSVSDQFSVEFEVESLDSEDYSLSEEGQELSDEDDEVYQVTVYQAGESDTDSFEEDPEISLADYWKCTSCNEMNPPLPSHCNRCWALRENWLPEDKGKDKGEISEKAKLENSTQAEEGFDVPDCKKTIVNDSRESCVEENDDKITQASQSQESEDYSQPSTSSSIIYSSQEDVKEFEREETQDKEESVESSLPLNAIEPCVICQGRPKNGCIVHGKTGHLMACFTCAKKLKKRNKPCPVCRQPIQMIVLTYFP
Sequence of E3 ubiquitin-protein ligase Mdm2/Protein Mdm4 (O15151 whole entry): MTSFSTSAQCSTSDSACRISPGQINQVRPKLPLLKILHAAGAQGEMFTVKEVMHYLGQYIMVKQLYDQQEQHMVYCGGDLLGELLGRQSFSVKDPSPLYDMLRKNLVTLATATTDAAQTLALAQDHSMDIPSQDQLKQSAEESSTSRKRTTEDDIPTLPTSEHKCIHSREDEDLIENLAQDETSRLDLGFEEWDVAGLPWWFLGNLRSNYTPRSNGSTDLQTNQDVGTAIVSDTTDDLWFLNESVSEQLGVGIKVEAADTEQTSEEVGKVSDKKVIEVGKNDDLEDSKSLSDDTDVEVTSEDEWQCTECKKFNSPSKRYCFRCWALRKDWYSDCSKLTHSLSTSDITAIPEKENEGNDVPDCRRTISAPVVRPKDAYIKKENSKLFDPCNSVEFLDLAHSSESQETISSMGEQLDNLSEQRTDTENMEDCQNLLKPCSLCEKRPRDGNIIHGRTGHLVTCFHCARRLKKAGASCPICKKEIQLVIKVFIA
Sequence of Potassium voltage-gated channel subfamily KQT member 2 (O88943 whole entry): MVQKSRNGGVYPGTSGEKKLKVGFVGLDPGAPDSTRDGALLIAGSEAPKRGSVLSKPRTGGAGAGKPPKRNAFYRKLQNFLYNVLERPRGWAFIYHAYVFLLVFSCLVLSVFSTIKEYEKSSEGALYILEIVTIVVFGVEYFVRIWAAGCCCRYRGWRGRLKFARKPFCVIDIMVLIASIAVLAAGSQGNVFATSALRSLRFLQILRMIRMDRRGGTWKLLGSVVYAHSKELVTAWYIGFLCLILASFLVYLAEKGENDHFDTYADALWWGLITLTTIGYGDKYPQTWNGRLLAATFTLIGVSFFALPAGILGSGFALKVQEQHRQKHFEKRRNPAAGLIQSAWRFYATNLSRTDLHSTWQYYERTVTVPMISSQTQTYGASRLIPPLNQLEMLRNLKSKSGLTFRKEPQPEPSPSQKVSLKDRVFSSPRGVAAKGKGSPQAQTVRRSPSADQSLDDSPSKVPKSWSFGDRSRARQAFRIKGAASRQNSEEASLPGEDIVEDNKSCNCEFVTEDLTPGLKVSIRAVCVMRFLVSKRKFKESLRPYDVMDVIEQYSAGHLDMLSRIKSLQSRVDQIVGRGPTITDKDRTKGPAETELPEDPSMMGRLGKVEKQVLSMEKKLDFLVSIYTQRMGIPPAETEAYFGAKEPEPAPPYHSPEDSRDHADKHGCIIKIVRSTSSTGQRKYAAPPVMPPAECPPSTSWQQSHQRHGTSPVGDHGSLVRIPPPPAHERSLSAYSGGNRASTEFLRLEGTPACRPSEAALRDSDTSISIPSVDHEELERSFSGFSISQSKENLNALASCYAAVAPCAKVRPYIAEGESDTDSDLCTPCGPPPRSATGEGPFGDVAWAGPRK
Sequence of Trypsin (P00761 whole entry): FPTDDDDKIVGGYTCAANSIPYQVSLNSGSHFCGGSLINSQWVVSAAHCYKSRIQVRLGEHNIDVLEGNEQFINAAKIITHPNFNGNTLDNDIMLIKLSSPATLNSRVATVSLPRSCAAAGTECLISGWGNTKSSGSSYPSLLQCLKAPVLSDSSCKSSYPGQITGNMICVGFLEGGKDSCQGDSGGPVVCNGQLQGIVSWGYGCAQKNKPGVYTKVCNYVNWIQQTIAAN

Compound: COC1C(OC(=O)c2ccc(C)[nH]2)C(O)C(Oc2ccc3c(O)c(NC(=O)c4ccc(O)c(CC=C(C)C)c4)c(=O)oc3c2Cl)OC1(C)C (centres undefined)
- IC50 [1]: 13 µM (active)
- IC50 [2]: 38.4 µM (active)
- IC50 [3]: 2.1 µM (active)
- IC50 [4]: 7.01 µM (active)
- IC50 [5]: 41.9 µM (active)

Compound: Cc1cc(/C=N/n2cnnc2)c(C)n1-c1ccc(OCc2ccc(Cl)cc2Cl)cc1
- EC50 [6]: 2.46 µM (active)
- EC50 [7]: 0.28 µM (active)
- IC50 [8]: > 100 µM (not active)
- EC50 [9]: > 150 µM (not active)
- CC50 [10]: 14.1 µM (active)
- EC50 [11]: > 50 µM (not active)
- EC50 [12]: 4.73 µM (active)
- EC50 [13]: 1.35 µM (active)
- AC50 [14]: 1.6 µM (active)
- IC50 [15]: 5.84 µM (active)

Compound: O=C(Nc1cccnc1)Nc1cccc(F)c1
- EC50 [16]: 6.28 µM (active)
- IC50 [17]: > 29.9 µM (inactive)
- EC50 [18]: 0.675 µM (active)
- IC50 [19]: 5.05 µM (active)
- EC50 [20]: > 29.9 µM (inactive)

Compound: COc1cc(-c2nc3ccccn3c2NCC2CCCO2)ccc1O (centres undefined)
- AC50 [21]: 12.8 µM (active)
- AC50 [22]: 23.4 µM (active)
- AC50 [23]: 6.82 µM (active)
- CC50 [24]: 100 µM (active)
- IC50 [25]: 49.9 µM (active)

Compound: COc1cc(-c2nc(-c3ccc(NC(=O)c4ccc5c(c4)OCO5)cc3)no2)cc(OC)c1OC
- IC50 [26]: 3.91 µM (active)

Compound: N=c1c(S(=O)(=O)c2ccc(Cl)cc2)cc2c(=O)n3ccccc3nc2n1Cc1ccco1
- IC50 [27]: 20.9 µM (active)
- IC50 [28]: 4.47 µM (active)
- EC50 [29]: > 260 µM (inactive)

Compound: CCCNC(=O)Nc1ccc2nc(-c3ccco3)c(-c3ccco3)nc2c1
- IC50 [30]: 1.01 µM (active)

Compound: CCCc1ccc(S(=O)(=O)NCc2ccc(C(=O)NCCN(Cc3ccccc3)C(C)C)cc2)cc1
- IC50 [31]: > 32 µM (inactive)
- IC50 [32]: 2 µM (active)
- IC50 [33]: > 32 µM (inactive)
- IC50 [34]: 2.25 µM (active)
